Measured values: patent US20230218573A1, “INDOLE COMPOUNDS FOR THE TREATMENT OF NEURODEGENERATIVE DISEASES” (GALYAN BIO, INC., priority 2020, published 2023)
“Also recorded” adds a separate entry of the source.

Key:
[1] = test system: STHdh 111/111; test: Morphology of striatal cells expressing mutated huntingtin; type: cell-based, mouse; details: versus not treated STHdh 111/111
[2] = test system: phospho-Tau (Ser404); test: Phospho-Tau (Ser404) levels in STHdh 7/7 cells by immunocytochemistry; type: cell-based, mouse
Text: (§1) Effect of Compound 4 on Phospho-Tau (Ser396) levels - ST HDH Q7/7 (CH00097, Coriell Institute) striatal derived cell line from a knock in transgenic mouse containing HTT loci with a humanized Exon 1 containing 7 polyglutamine repeats. Diffuse mHTT quantified with immunocytochemistry as described in Example 33 with the exception that instead of 3B5H10 antibody for staining mHTT, phospho-Tau (Ser404) polyclonal antibody (ThermoFisher, Catalog 44-758G) was used to stain phospho-Tau (Ser396) and no heat shock was used.

[3] = test system: phospho-Tau (Ser396); test: Phospho-Tau (Ser396) levels in STHdh 7/7 cells by immunocytochemistry; type: cell-based, mouse
Experimental: as §1, with “Immunocytochemistry was conducted” for “Diffuse mHTT quantified with immunocytochemistry”, “(Ser396)” for “(Ser404)”, “44-752G)” for “44-758G)”, “(Ser396).” for “(Ser396) and no heat shock was used.”

[4] = test system: Exon1 Q46; test: Circular dichroism of Exon1 Q46, predominantly α-helical state; type: biochemical; details: Exon1 Q46; conc. compound 0.647 µM
Experimental: Protein samples were diluted with buffer to 7.5 µM prior to Circular Dichroism (CD) measurements. Measurements were conducted at room temperature.
Four spectra at each measurement were taken every 1 nm from 200 to 260 nm, scanning at 50 nm/min with an averaging time of 1 sec. Spectra were obtained from samples in 20 mM phosphate, pH 7.4. Ten scans were averaged for each sample spectrum
Single-wavelength readings at 222 nm were obtained. After subtraction of the Trx contribution, the α-helical content of Httex1 was estimated from its mean residue ellipticity (MREHttex1) at 222 nm. This calculation was conducted as described by Bravo-Arredondo (Bravo-Arredondo, J.M. et al., J Biol Chem. 2018 Dec 21;293(51):19613-19623).
MRE Exon-1 […] and Q46 (Mean Residue Ellipticity) was measured every 1 sec for 300 sec; the 301 readings for each sample were averaged and MRE Trx subtracted. The number of amino acids in each sample to experience a change in helicity was estimated using a previously developed helix-coil transition model, which gave the change in fraction of helicity (ΔfHelix) by the following equation: […]
where MRE Exon1 Q26 or Q46 (MREHttex1 in the formula) describes the helix-coil transition, obtained from the difference between MRE Eon1 Q26 or Q46 at 222 nm of the fusion protein at the given temperature (in our case 37° C.) and the product of MRE Trx at 222 nm at the same temperature and the fraction of residues comprised by Trx in that particular construct, and
In order to calculate an equilibrium of the two states model, percent α-helicity was calculated using the relation of MREHttex1 = 0 and -34700 (deg cm^2 dmol^-1) for 0% and 100% helicity, respectively.
The CD measurements protocol for Compound 101 was the same as outlined above except that from 206 nm - 210 nm and 220 nm - 224 nm, the step size was 0.2 nm, and the bandwidth was 1 nm.

[5] = test system: STHdh 111/111 striatal cells; test: Cell viability (CellTiter Glo) of heat shocked STHdh 111/111 striatal cells; type: cell-based, mouse; details: Mus musculus, STHdh 111/111; 10 µM; 48 hours treatment; read-out: Cell Viability striatal cells 3h heat shocked
Experimental: Cell culture - ST HDH Q111/111 (CH00095, Coriell Institute) striatal derived cell line were grown at 33° C. in DMEM (Sigma-Aldrich), supplemented with 10% fetal bovine serum (FBS), 1% Penicillin-Streptomycin (ThermoFisher Scientific), and 0.4 mg/ml G418 (Geneticin; Invitrogen). ST HDH Q111/111 are mouse striatal cells with polyQ length of 1111.
(§4) Pre-Treatment of striatal cell line - First the medium was removed and new DMEM (DMEM, high glucose, HEPES, no phenol red) medium, supplemented with 10% fetal bovine serum (FBS), 1% Penicillin-Streptomycin, containing 10 µM compound was added. The cells were incubated at 33° C. for 24 hours.
(§5) Heat shock - Cells were heat shocked for 3 hours at 41° C.
(§6) Treatment - Medium was removed and new DMEM (DMEM, high glucose, HEPES, no phenol red) medium, supplemented with 1% fetal bovine serum (FBS), 1% Penicillin-Streptomycin, containing 10 µM compound was added. The cells were incubated at 33° C. for 48 hours.
Cell Viability - Cell viability was measured according to manufacturer recommendations with CellTiter Glo (Promega). 96-well plates for used either for cell viability determination or cell staining.

[6] = Pharmacokinetics, plasma and brain concentration by UHPLC-TOF; type: in vivo, mice; details: mouse, in vivo
Experimental: Compound 22 is an analog of Compound 7. […] Compound 22 pharmacokinetic properties was measured in three male CD1 mice at several timepoints. Compound 22 was dissolved in 10% DMSO, 10%, cremaphor, and 80% saline. The tested dose was 33.3 mg/kg body weight. Brain tissue was homogenized and protein precipitated with acetonitrile. […] As such, Compound 22 was selected for testing in an animal model of HD the R6/2 model. As described below, Compound 22 and its analogs were further tested for their effects on striatal cell viability and effects of mHTT levels.

[7] = test system: zebrafish larvae; test: Zebrafish MPP+ model, sleep parameters; type: in vivo; details: co-incubation with MPP+
Experimental: (§2) Six groups were included in each experiment. Immediately after spawning, 40 embryos per group were allocated to a 24-well plate and system water (solvent) was added to all wells. For assessment of neuroprotective potential, Compound 4 was added for a final concentration of 1, 10 and 20 µM (column 4-6). From the following day at 24 hpf, Compound 4 was co-incubated with 500 µM MPP+. MPP+ was prepared immediately prior to incubation and solutions were changed daily. At 120 hpf, drug treatment and MPP+ exposure was ceased and a 3X wash was performed with system water. Larvae were then relocated to 96-well plates for behavioral recording and placed in a separate recording room for 24-hour acclimation. Prior to behavioral recording, wells were fully replenished system water.
(§3) Naive group was exposed to solvent only. Vehicle group was exposed to solvent and vehicle corresponding to the vehicle of 20 µM drug solution (0.02% DMSO). MPP+ positive control was exposed to solvent and 500 µM MPP+. All compound groups were treated with the respective vehicle and respective concentration of compound 4.
Behavioral data was recorded from 1 p.m. on 6 dpf until shortly after wakening on 7 dpf. The recording consisted of a photomotor assay in which lights switch off and on in 30-minute intervals between 1 p.m. and 6 p.m., producing a consistent photomotor response. […]

[8] = test system: zebrafish larvae; test: Zebrafish MPP+ motility model, photomotor assay; type: in vivo
Experimental: MPP+ selectively targets dopaminergic neurons; the putative mechanism is induction of K+ efflux, cell membrane hyperpolarization and inhibition of neuronal firing. This ultimately leads to an inhibition of complex I, a decrease in ATP production and promotion of the generation of reactive oxygen species upon accumulation in the mitochondria (3). The observed phenotype following exposure to 500 µM from 24 hours post fertilization (hpf) to 120 hpf is characterized by a decrease in movement during lights-on phases of a photomotor assay. In unpublished data below, representative locomotor perturbations of the distance moved and movement frequency is shown.
as §2, §3
Behavioral data was recorded from 1 p.m. on 6 dpf until shortly after wakening on 7 dpf. The recording consisted of a photomotor assay in which lights switch off and on in 30-minute intervals between 1 p.m. and 6 p.m., producing a consistent photomotor response. […] Upon lights being turned on again, the larvae cease movement followed by a return to baseline. This cycle is repeated five times. Following the last lights-off phase, constant illumination is presented until lights turn off at 10 p.m. for the night. Lights turn on again at 8 a.m. the following day.
Average movement frequency was measured during 30-minute lights-on phases of photomotor assay. Movement bouts were defined as initiated when velocity exceeded a threshold of 2 mm/s and ceased when velocity fell below 1 mm/s.
Distance moved (mm) was defined as the average distance moved during 30-minute lights-on phases of photomotor assay.
Data was obtained using EthoVision XT (Version 11.5.2016, Noldus) and exported to Microsoft Excel for data analysis. […]

[9] = molecular target: T1, mHTT (Mus musculus, UniProt P42859, DEL28-30/G47A/INS49LLPQPQPP/INS60VA/L56P/P40L); test: Diffuse mHTT levels in heat shocked STHdh 111/111 striatal cells by immunocytochemistry
Experimental: as §4, §5, §6
Staining - Cells were permeabilized with 0.3% Triton X-100 in 4° C. PBS (pH 7.4 from ThermoFisher) for 10 minutes. Then the cells were washed two times with 4° C. PBS. Subsequently, cells are blocked with 3% NGS (normal goat serum from Thermo Fisher) in 4° C. PBS for 1 hour. Cells were incubated with primary antibodies in blocking buffer (PBS, 3% NGS, 0.02% NaN3) over night at 4° C. Primary antibodies were mouse antipolyglutamine monoclonal antibody 3B5H10 (Sigma-Aldrich) at 1:250 dilution and Guinea Pig anti-MAP2 polyclonal antibody (Synaptic Systems) at 1:500 dilution. 3B5H10 binds to diffuse mHTT. Diffuse mHTT is a monomeric and small oligomeric mHTT.
Cells were washed 2 times with 4° C. PBS, and then incubated with secondary antibodies at 1:2000 dilution in blocking buffer for 1 hour at room temperature. […] Cells were washed 2 times with 4° C. PBS, and then the nuclei were counterstain with DAPI (ThermoFisher) for 10 min at room temperature in the dark. Cells were washed 2 times with 4° C. PBS, and then 4° C. PBS was added to cells and then images were acquired.
Fluorescence Imaging - Imaging sessions were performed on a confocal microscope system (Carl Zeiss Microscopy) equipped with a dual spinning disk unit (Yokogawa). All components of the imaging system were controlled via the ZEN 2 software suite (Carl Zeiss Microscopy). The laser lines used were 405 nm, 488 nm and 639 nm to excite DAPI or the respective fluorophores. […] Nested t test was performed to calculate the significance amongst repeated measurements using GraphPad Prism software.
EC 50 value was determined with non-linear regression.

[10] = molecular target: T1, mHTT; test: mHTT reduction in STHdh 111/111 cells exposed to autophagy inhibitor NH4Cl or UPS inhibitor MG132; type: cell-based; parameters: host or cells: ST HDH Q111/111 mouse striatal derived cell line; details: striatal cells exposed to MG132
Experimental: Invitrogen). […] Staining - Cells were permeabilized with 0.3% Triton X-100 in 4° C. PBS (pH 7.4 from ThermoFisher) for 10 minutes. Then the cells were washed two times with 4° C. PBS. Subsequently, cells are blocked with 3% NGS (normal goat serum from Thermo Fisher) in 4° C. PBS for 1 hour. […] Primary antibodies were mouse antipolyglutamine monoclonal antibody 3B5H10 (Sigma-Aldrich) at 1:250 dilution and Guinea Pig anti-MAP2 polyclonal antibody (Synaptic Systems) at 1:500 dilution. For LC3 staining primary antibodies were mouse anti-LC3 mab (5F10) (nanoTools) at 1:500 dilution and Guinea Pig anti-MAP2 polyclonal antibody (Synaptic Systems) at 1:500 dilution. Cells were washed 2 times with 4° C. PBS, and then incubated with secondary antibodies at 1:2000 dilution in blocking buffer for 1 hour at room temperature. […] Fluorescence Imaging - Imaging sessions were performed on a confocal microscope system (Carl Zeiss Microscopy) equipped with a dual spinning disk unit (Yokogawa). […] The fluorescence images obtained of the immunofluorescence labelled tissue sections were quantified with the help of the “Image Processing and Analysis in Java” or short ImageJ software distributed under the GNU General Public License by the NIH (Rueden, C.T. et al., BMC Bioinformatics. 2017 Nov 29;18(1):529), i.e. the edition used was the Fiji distribution (Schindelin, J. et al., Nature methods. 2012 Jun 28;9(7):676-82). […]

[11] = 1, 10 and 20 µM with 500 µM MPP+

T1 sequence (P42859 with tags, fused parts or gaps DEL28-30/P40L/G47A/INS49LLPQPQPP/L56P/INS60VA): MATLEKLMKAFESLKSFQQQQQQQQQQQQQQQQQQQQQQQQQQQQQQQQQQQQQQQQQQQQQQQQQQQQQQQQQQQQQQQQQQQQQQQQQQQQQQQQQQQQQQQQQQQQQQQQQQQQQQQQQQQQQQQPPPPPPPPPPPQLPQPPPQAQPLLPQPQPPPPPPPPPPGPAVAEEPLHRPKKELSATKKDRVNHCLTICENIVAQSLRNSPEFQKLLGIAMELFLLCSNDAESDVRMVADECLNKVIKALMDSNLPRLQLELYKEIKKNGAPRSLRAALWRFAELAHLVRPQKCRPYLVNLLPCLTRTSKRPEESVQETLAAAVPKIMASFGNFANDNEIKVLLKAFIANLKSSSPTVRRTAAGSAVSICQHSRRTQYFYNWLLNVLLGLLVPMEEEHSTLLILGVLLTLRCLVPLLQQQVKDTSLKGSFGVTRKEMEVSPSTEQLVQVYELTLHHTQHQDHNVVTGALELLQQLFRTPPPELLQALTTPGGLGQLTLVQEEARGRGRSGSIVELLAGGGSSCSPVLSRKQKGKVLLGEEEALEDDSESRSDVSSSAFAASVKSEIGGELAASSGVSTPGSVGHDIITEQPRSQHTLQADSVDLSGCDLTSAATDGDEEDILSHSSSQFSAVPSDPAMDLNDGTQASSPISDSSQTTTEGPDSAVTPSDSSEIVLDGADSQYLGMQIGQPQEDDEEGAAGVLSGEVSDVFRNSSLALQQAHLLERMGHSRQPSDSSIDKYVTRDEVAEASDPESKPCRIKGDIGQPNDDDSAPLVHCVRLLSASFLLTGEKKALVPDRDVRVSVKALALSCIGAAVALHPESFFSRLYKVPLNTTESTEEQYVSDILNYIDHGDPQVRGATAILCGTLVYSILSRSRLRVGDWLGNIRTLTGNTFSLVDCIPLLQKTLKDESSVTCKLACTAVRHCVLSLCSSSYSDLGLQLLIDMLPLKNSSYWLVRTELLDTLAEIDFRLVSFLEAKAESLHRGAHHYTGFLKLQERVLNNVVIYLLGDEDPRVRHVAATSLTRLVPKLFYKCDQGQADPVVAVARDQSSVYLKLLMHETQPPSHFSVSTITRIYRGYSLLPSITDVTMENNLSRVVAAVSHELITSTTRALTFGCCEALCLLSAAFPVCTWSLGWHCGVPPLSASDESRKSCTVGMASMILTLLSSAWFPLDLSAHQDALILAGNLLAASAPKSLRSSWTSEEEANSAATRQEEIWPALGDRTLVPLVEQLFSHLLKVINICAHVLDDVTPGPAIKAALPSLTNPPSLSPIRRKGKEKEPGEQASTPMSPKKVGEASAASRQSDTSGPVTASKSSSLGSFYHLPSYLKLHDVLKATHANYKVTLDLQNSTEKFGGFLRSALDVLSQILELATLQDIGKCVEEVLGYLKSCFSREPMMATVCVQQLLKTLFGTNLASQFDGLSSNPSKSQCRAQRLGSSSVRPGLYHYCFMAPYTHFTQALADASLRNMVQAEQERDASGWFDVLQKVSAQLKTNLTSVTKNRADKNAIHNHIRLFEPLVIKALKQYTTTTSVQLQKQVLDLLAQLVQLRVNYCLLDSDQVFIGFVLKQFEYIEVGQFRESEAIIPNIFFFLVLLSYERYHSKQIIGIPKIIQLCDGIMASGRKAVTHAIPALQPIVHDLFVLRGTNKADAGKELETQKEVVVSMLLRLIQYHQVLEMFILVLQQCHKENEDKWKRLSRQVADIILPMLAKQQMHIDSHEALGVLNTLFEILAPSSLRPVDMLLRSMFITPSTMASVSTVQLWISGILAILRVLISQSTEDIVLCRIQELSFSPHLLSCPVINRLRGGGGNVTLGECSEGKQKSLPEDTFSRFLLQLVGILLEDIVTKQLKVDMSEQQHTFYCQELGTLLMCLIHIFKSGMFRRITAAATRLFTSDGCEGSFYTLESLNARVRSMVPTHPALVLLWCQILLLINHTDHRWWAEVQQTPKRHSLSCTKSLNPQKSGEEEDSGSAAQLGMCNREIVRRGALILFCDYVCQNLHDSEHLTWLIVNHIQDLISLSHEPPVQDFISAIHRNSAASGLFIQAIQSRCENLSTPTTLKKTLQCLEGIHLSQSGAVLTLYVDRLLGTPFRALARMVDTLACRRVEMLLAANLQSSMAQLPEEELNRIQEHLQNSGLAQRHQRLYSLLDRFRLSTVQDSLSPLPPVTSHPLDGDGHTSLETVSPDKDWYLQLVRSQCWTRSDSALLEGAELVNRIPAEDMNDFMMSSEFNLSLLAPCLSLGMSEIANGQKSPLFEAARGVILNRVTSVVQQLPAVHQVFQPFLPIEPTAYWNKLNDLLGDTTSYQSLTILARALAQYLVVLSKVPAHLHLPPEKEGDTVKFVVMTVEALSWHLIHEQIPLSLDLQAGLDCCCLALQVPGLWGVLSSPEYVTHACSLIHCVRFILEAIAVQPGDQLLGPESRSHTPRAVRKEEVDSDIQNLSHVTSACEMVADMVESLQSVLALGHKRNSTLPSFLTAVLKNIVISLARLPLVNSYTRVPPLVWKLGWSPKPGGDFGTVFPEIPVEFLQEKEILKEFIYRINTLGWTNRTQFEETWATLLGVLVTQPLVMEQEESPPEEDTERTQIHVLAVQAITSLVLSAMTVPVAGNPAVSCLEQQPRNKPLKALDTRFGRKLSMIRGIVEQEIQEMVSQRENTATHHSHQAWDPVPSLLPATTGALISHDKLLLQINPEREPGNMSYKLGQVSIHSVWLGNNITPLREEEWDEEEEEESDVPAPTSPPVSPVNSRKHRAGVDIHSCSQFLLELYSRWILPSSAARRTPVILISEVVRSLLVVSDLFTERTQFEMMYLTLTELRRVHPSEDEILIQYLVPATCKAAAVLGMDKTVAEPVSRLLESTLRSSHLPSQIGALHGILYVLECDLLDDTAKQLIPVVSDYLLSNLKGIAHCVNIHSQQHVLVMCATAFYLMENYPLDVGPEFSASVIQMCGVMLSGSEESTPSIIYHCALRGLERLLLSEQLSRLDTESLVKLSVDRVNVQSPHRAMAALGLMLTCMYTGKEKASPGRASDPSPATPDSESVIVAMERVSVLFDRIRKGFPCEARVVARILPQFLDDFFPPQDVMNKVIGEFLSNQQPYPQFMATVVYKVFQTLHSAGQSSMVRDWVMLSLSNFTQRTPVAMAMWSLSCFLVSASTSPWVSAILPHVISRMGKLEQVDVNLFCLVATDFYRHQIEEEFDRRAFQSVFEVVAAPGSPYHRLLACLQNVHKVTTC

CCc1c(C)[nH]c2ccc(C(=O)NCCN(CC)CC)cc12 [Compound 4, N-(2-(diethylamino)ethyl)-3-ethyl-2-methyl-1H-indole-5-carboxamide]
morphology of STHdh 111/111 [1]: improved cell viability, dendrite outgrowth and increased cell size | Phospho-Tau (Ser404) reduced by ([2]; STHdh 7/7, 10 µM, no heat shock, in comparison to untreated cells): 40% | Phospho-Tau (Ser404) reduction ([2]; STHdh 7/7 exposed to 10 mM ammonium chloride): could not reduce | Phospho-Tau (Ser396) reduced by ([3]; STHdh 7/7, 10 µM, in comparison to untreated cells): 26.3% | Phospho-Tau (Ser396) reduction ([3]; STHdh 7/7 exposed to 10 mM ammonium chloride, 5 µM): could not reduce | Phospho-Tau (Ser396) reduction ([3]; STHdh 7/7 exposed to ammonium chloride, 10 µM): 15.2% | Fraction Helix fH (%) [4]: 20.0% | viability at 10 µM [5]: 125% | crossing of the blood brain barrier [6]: can cross the blood brain barrier | sleep parameters (sleep fragmentation, sleep ratio, velocity, wake bout duration, sleep bout duration) [7]: No statistically significant difference; also recorded: does neither reduce nor increase sleep | distance moved, drug treatment groups compared to MPP+ [8, 11]: no significant difference | movement frequency, drug treatment groups compared to MPP+ [8, 11]: no significant difference | overall movement during assessment of neuroprotection ([8]; concentrations ~10 µM and ~1 µM with MPP+): subtle increase in overall movement | EC50 [9]: 130 nM | Diffuse mHTT reduced by ([9]; STHdh 111/111, in comparison to untreated cells): 68%

O=C(NCCN1CCC1)c1ccc2[nH]c3c(c2c1)CCCC3 [Compound 20]
viability at 10 µM [5]: 118% | mHTT reduction with MG132 in comparison to without MG132 [10]: less
